# Results as given in US20240158446A1, “CYCLIC COMPOUND HAVING SELECTIVE INHIBITORY ACTION ON KRAS OVER HRAS AND NRAS” (CHUGAI SEIYAKU KABUSHIKI KAISHA, priority 2021, published 2024).
# Like-named read-outs stand apart in the source and are kept apart here.
# What was measured:
# [1] = target: GDP-bound KRAS wild-type protein (Homo sapiens, UniProt P01116); experiment: Binding to KRAS by surface plasmon resonance (SPR), Single Cycle Kinetics
# [2] = target: GDP-bound NRAS wild-type protein (Homo sapiens, UniProt P01111); experiment: Binding to NRAS by surface plasmon resonance (SPR), Single Cycle Kinetics; settings: for NRAS/KRAS (ratio of KD value for NRAS to KD value for KRAS): GDP-bound NRAS wild-type protein vs GDP-bound KRAS wild-type protein; for NRAS/KRAS (ratio of KD value with respect to GDP-bound NRAS wild-type protein to KD value with respect to KRAS): SPR KD ratio NRAS/KRAS, class symbols
# [3] = target: GDP-bound HRAS wild-type protein (Homo sapiens, UniProt P01112); experiment: Binding to HRAS by surface plasmon resonance (SPR), Single Cycle Kinetics; settings: for HRAS/KRAS (ratio of KD value for HRAS to KD value for KRAS): GDP-bound HRAS wild-type protein vs GDP-bound KRAS wild-type protein; for HRAS/KRAS (ratio of KD value with respect to GDP-bound HRAS wild-type protein to KD value with respect to KRAS): SPR KD ratio HRAS/KRAS, class symbols
# [4] = system: human lung cancer strain NCI-H441;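 also: cell proliferation inhibition after four days measured by CellTiter-Glo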
# [5] = SPR, Single Cycle Kinetics, 1:1 binding model, GDP-bound KRAS wild-type protein, read-out: KRAS KD
# [6] = SPR Single Cycle Kinetics, GDP-bound KRAS wild-type protein, 1:1 binding model, read-out: KRAS KD
# Chain of GDP-bound HRAS wild-type protein (P01112 whole entry): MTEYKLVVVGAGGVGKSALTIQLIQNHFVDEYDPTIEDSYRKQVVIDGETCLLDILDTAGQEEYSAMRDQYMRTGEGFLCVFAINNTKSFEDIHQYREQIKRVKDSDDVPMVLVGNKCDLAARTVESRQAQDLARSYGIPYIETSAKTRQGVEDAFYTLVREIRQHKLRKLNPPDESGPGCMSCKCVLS
# Chain of GDP-bound KRAS wild-type protein (P01116 whole entry): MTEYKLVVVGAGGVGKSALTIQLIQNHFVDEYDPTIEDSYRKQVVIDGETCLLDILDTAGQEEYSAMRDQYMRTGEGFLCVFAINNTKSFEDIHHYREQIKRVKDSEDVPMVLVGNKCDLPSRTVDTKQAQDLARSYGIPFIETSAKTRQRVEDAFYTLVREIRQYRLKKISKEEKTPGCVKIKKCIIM
# Chain of GDP-bound NRAS wild-type protein (P01111 whole entry): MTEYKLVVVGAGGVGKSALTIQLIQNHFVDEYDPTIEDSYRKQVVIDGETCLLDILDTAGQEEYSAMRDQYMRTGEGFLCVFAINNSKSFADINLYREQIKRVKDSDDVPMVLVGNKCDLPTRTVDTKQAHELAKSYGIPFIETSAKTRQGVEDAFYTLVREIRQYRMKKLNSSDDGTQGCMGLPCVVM
SMILES,"Kd [1, 5] [nM]","NRAS/KRAS (ratio of KD value for NRAS to KD value for KRAS) ([2]; SPR, KD ratio class)","HRAS/KRAS (ratio of KD value for HRAS to KD value for KRAS) ([3]; SPR, KD ratio class)",IC50 [4] [nM],"Kd [1, 6] [nM]",NRAS/KRAS (ratio of KD value with respect to GDP-bound NRAS wild-type protein to KD value with respect to KRAS) [2],HRAS/KRAS (ratio of KD value with respect to GDP-bound HRAS wild-type protein to KD value with respect to KRAS) [3],further results
CCO[C@@H]1C[C@H]2C(=O)NC3(CCC3)C(=O)N(C)[C@@H](C3CCCC3)C(=O)N(C)[C@H](C(=O)N3CCOCC3)CC(=O)N(C)[C@@H](CC)C(=O)N[C@@H]([C@@H](C)CC)C(=O)N(C)CC(=O)N(C)[C@H]3CC[C@@H](C)CN(C3=O)[C@@H](Cc3ccc(C(F)(F)F)cc3)C(=O)N(C)CC(=O)N[C@@H](CCc3ccc(C(F)(F)F)c(Cl)c3)C(=O)N2C1 [PP1378],0.081,B (a compound having 3 or more and less than 10 is denoted as B),C (A compound having a KD ratio of 0.1 or more and less than 3 is denoted as C),6.6,,,,
CCO[C@@H]1C[C@H]2C(=O)NC3(CCC3)C(=O)N(C)[C@@H](C3CCCC3)C(=O)N(C)[C@H](C(=O)N(C)C)CC(=O)N(C)[C@@H](CC(C)C)C(=O)N[C@@H]([C@@H](C)CC)C(=O)N(C)CC(=O)N(C)[C@H]3C/C=C\CCN(C3=O)[C@@H](Cc3ccc(F)cc3)C(=O)N(C)CC(=O)N[C@@H](CCc3ccc4sccc4c3)C(=O)N2C1 [PP1427],0.99,A (a compound having 10 or more and less than 20 is denoted as A),B (a compound having 3 or more and less than 10 is denoted as B),465,,,,
CCO[C@@H]1C[C@H]2C(=O)NC3(CC(C)(C)C3)C(=O)N(C)[C@@H](C3CCCC3)C(=O)N(C)[C@H](C(=O)N(C)C)CC(=O)N(C)[C@@H](COC)C(=O)N[C@@H]([C@@H](C)CC)C(=O)N(C3CC3)CC(=O)N(C)[C@H]3C/C=C\CCN(C3=O)[C@@H](CC3CCCCC3)C(=O)N(C)CC(=O)N[C@@H](CCc3cc(F)c(C(F)(F)F)c(F)c3)C(=O)N2C1 [PP2562],,,,46.5,0.91,B (a compound having 3 or more and less than 10 is denoted as B),B (a compound having 3 or more and less than 10 is denoted as B),
CCO[C@@H]1C[C@H]2C(=O)NC3(CCC3)C(=O)N(C)[C@@H](C3CCCC3)C(=O)N(C)[C@H](C(=O)N3CCCCC3)CC(=O)N(C)[C@@H](CC(C)C)C(=O)N[C@@H]([C@@H](C)CC)C(=O)N(C)CC(=O)N(C)[C@H]3C/C=C\CCN(C3=O)[C@@H](Cc3ccc(C(F)(F)F)cc3)C(=O)N(C)CC(=O)N[C@@H](CCc3cc(F)c(C(F)(F)F)c(F)c3)C(=O)N2C1 [PP1290],0.24,AA (a compound having 20 or more is denoted as AA),A (a compound having 10 or more and less than 20 is denoted as A),15.4,,,,
CCC[C@H]1C(=O)N[C@@H]([C@@H](C)CC)C(=O)N(C)CC(=O)N(C)[C@H]2C/C=C\CCN(C2=O)[C@@H](Cc2ccc(C(F)F)cc2)C(=O)N(C)CC(=O)N[C@@H](CCc2ccc(Cl)c(Cl)c2)C(=O)N2C[C@H](OCC)C[C@H]2C(=O)NC2(CC(C)(C)C2)C(=O)N(C)[C@@H](C(CC)CC)C(=O)N(C)[C@H](C(=O)N(C)C)CC(=O)N1C [PP2531],,,,16.3,0.51,AA (a compound having 20 or more is denoted as AA),A (a compound having 10 or more and less than 20 is denoted as A),
CCO[C@@H]1C[C@H]2C(=O)NC3(CC(C)(C)C3)C(=O)N(C)[C@@H](C3CCCC3)C(=O)N(C)[C@H](C(=O)N3CCCCC3)CC(=O)N(C)[C@@H](COC)C(=O)N[C@@H]([C@@H](C)CC)C(=O)N(C)CC(=O)N(C)[C@H]3C/C=C\CCN(C3=O)[C@@H](Cc3ccc(C)cc3)C(=O)N(C)CC(=O)N[C@@H](CCc3cc(F)c(C(F)(F)F)c(F)c3)C(=O)N2C1 [PP2668],,,,10.3,0.18,A (a compound having 10 or more and less than 20 is denoted as A),A (a compound having 10 or more and less than 20 is denoted as A),
CCC[C@H]1C(=O)N[C@@H]([C@@H](C)CC)C(=O)N(C)CC(=O)N(C)[C@H]2C/C=C\CCN(C2=O)[C@@H](Cc2ccc(C(F)(F)F)cc2)C(=O)N(C)CC(=O)N[C@@H](CCc2ccc(Cl)c(Cl)c2)C(=O)N2C[C@H](OCC)C[C@H]2C(=O)NC2(CCC2)C(=O)N(C)[C@@H](C2CCCC2)C(=O)N(C)[C@H](C(=O)N(C)C)CC(=O)N1C [PP1250],0.19,AA (a compound having 20 or more is denoted as AA),A (a compound having 10 or more and less than 20 is denoted as A),18.7,,,,
CCO[C@@H]1C[C@H]2C(=O)NC3(CC(C)(C)C3)C(=O)N(C)[C@@H](C3CCCC3)C(=O)N(C)[C@H](C(=O)N(C)C)CC(=O)N(C)[C@@H](CC3CCC3)C(=O)N[C@@H]([C@@H](C)CC)C(=O)N(C)CC(=O)N(C)[C@H]3C/C=C\CCN(C3=O)[C@@H](Cc3ccc(C(F)(F)F)cc3)C(=O)N(C)CC(=O)N[C@@H](CCc3ccc(C(F)(F)F)c(OC)c3)C(=O)N2C1 [PP1564],0.073,A (a compound having 10 or more and less than 20 is denoted as A),A (a compound having 10 or more and less than 20 is denoted as A),3,,,,
"CCC[C@H]1C(=O)N[C@@H]([C@@H](C)CC)C(=O)N(C2CC2)CC(=O)N(C)[C@H]2C/C=C\CCN(C2=O)[C@@H](Cc2ccc(C(F)(F)F)cc2)C(=O)N(C)CC(=O)N[C@@H](CCc2ccc(C(F)(F)F)c(OC)c2)C(=O)N2C[C@H](OCC)C[C@H]2C(=O)N(C)C2(CCC2)C(=O)N(C)[C@@H](C2CCCC2)C(=O)N(C)[C@H](C(=O)N2CCCCC2)CC(=O)N1C [PP3095, (2S,8S,12R,14S,20S,23S,27S,30S,36S,38Z)-20-cyclopentyl-32-cyclopropyl-12-ethoxy-8-[2-[3-methoxy-4-(trifluoromethyl)phenyl]ethyl]-4,16,19,22,26,35-hexamethyl-30-[(1S)-1-methylpropyl]-23-(piperidine-1-carbonyl)-27-propyl-2-[[4-(trifluoromethyl)phenyl]methyl]spiro[1,4,7,10,16,19,22,26,29,32,35-undecazatricyclo[34.5.1.0^10,14]dotetracont-38-ene-17,1′-cyclobutane]-3,6,9,15,18,21,25,28,31,34,42-undecone]",,,,,,,,"Kd ([1]; SPR, Single Cycle Kinetics, 1:1 binding model, read-out: KD value with respect to GDP-bound KRAS wild-type protein): 0.67 nM; Kd ([1]; SPR, Single Cycle Kinetics, GDP-bound KRAS wild-type protein, read-out: KRAS KD): 0.67 nM; NRAS/KRAS (ratio of KD value for NRAS to KD value for KRAS) ([2]; SPR): A (a compound having 10 or more and less than 20 is denoted as A); ratio of the KD value with respect to GDP-bound NRAS wild-type protein to the KD value with respect to KRAS ([2]; SPR, KD(NRAS)/KD(KRAS)): A (a compound having 10 or more and less than 20 is denoted as A); HRAS/KRAS (ratio of KD value for HRAS to KD value for KRAS) ([3]; SPR): A (a compound having 10 or more and less than 20 is denoted as A); ratio of the KD value with respect to GDP-bound HRAS wild-type protein to the KD value with respect to KRAS ([3]; SPR, KD(HRAS)/KD(KRAS)): A (a compound having 10 or more and less than 20 is denoted as A); IC50 ([4]; read-out: NCI-H441 cell proliferation inhibitory activity, 50% proliferation inhibitory concentration (IC50 value), NCI-H441, four days, CellTiter-Glo): 33.7 nM"
CCC[C@H]1C(=O)N[C@@H]([C@@H](C)CC)C(=O)N(C2CC2)CC(=O)N(C)[C@H]2C/C=C\CCN(C2=O)[C@@H](Cc2ccc(C)cc2)C(=O)N(C)CC(=O)N[C@@H](CCc2cc(F)c(C(F)(F)F)c(F)c2)C(=O)N2C[C@H](OCC)C[C@H]2C(=O)NC2(CC(C)(C)C2)C(=O)N(C)[C@@H](CC(C)(C)C)C(=O)N(C)[C@H](C(=O)N(C)C)CC(=O)N1C [PP2718],,,,7.6,0.33,A (a compound having 10 or more and less than 20 is denoted as A),A (a compound having 10 or more and less than 20 is denoted as A),
"CCCOC[C@H]1C(=O)N[C@@H]([C@@H](C)CC)C(=O)N(C)CC(=O)N(C)[C@H]2C/C=C\CCN(C2=O)[C@@H](Cc2ccc(C(F)(F)F)cc2)C(=O)N(C)CC(=O)N[C@@H](CCc2cc(F)c(C(F)(F)F)c(F)c2)C(=O)N2C[C@H](OCC)C[C@H]2C(=O)NC2(CC(C)(C)C2)C(=O)N(C)[C@@H](C2CCCC2)C(=O)N(C)[C@H](C(=O)N(C)C)CC(=O)N1C [PP1398, (2S,8S,12R,14S,20S,23S,27S,30S,36S,38Z)-20-cyclopentyl-8-[2-[3,5-difluoro-4-(trifluoromethyl)phenyl]ethyl]-12-ethoxy-N,N,3′,3′,4,19,22,26,32,35-decamethyl-30-[(1S)-1-methylpropyl]-3,6,9,15,18,21,25,28,31,34,42-undecaoxo-27-(propoxymethyl)-2-[[4-(trifluoromethyl)phenyl]methyl]spiro[1,4,7,10,16,19,22,26,29,32,35-undecazatricyclo[34.5.1.0^10,14]dotetracont-38-ene-17,1′-cyclobutane]-23-carboxamide]",0.032,A (a compound having 10 or more and less than 20 is denoted as A),A (a compound having 10 or more and less than 20 is denoted as A),2.3,,,,
